The source of these data is ChEMBL document CHEMBL1150550, “A novel condensed tropone-isoquinoline alkaloid, pareitropone, from Cissampelos pareira” (Bioorg Med Chem Lett, 1995).

Structures are written as SMILES. In brackets after ≈: the same amount, converted by molar mass.

This assay deals with P388. The experiment in a line: Cytotoxicity against cultured p-388 cells. The conditions noted are these: Mus musculus. The format is functional, cell-based.
For the compound `COc1c(OC)c2c3c(nccc3c1OC)-c1cc(OC)c(=O)ccc1-2`, the IC50 (commonly the concentration needed to halve the response being measured) is 1.2 µg/mL (≈ 3.42 µM).

In turn, `COc1cc2ccnc3c2c(c1OC)-c1ccc(=O)ccc1-3` [PAREITROPONE] returned an IC50 of 0.0008 µg/mL (≈ 0.00275 µM). As for `COc1c(OC)c2c3c(nccc3c1OC)-c1cc(O)c(=O)ccc1-2` [GRANDIRUBRINE], the figure is 0.18 µg/mL (≈ 0.534 µM).
